Data on 15 molecules can be found in ChEMBL document CHEMBL1143443, “Discovery of (naphthalen-4-yl)(phenyl)methanones and N-methyl-N-phenylnaphthalen-1-amines as new apoptosis inducers using a cell- and caspase-based HTS assay” (Bioorg Med Chem Lett, 2008).

What is called GI50 is the concentration giving 50% growth inhibition. The low end stands for more potent growth inhibition, the high end for less potent growth inhibition. Broadly, the pEC50 is the negative decadic logarithm of the EC50, by convention in mol/L.

Molecules are shown by their SMILES. pEC50: −log10 of the molar value. Bounds are passed on as bounds.

The subject of experiment [1] is SNU-398. Description: Cytotoxicity against human SNU398 cells. Type of experiment: functional.
Experiment [2] deals with HCT-116. Description: Cell cycle arrest in human HCT116 cells assessed as increase in G2/M phase population at 100 nM after 24 hrs by flow cytometry. The class given is functional.
The test system of experiment [3] is HCT-116. Description: Cell cycle arrest in human HCT116 cells assessed as increase in subG1 phase population at 100 nM after 24 hrs by flow cytometry. Type of experiment: functional. In general terms: In flow cytometry, cells or beads pass a laser one at a time.
Experiment [4] concerns HCT-116. Description: Cell cycle arrest in human HCT116 cells assessed as increase in subG1 phase population at 100 nM after 48 hrs by flow cytometry. The class given is functional.
Experiment [5] has as its system HCT-116. Description: Cytotoxicity against human HCT116 cells. The class given is functional.
Experiment [6] deals with T47D. Description: Induction of apoptosis in human T47D cells assessed as caspase activation by HTS assay. Type of experiment: functional, cell-based.
Experiment [7] has as its system HCT-116. Description: Induction of apoptosis in human HCT116 cells assessed as caspase activation by HTS assay. Type of experiment: functional, cell-based.
Experiment [8] relates to SNU-398. Description: Induction of apoptosis in human SNU398 cells assessed as caspase activation by HTS assay. Type of experiment: functional, cell-based.
Experiment [9] has as its system T47D. Description: Cytotoxicity against human T47D cells. Type of experiment: functional.

With `CN(C)c1ccc(C(=O)c2ccc(N(C)C)c3ccccc23)cc1`, the GI50 in the experiment with SNU-398 [1] turned out to be 0.027 µM; in the experiment on HCT-116 [5], 0.068 µM; in the experiment with T47D [9] it was 0.034 µM. For the same molecule, the Activity with HCT-116 [2] was determined as 12%; in the experiment with HCT-116 [3], 4%; in the experiment on HCT-116 [4], 53%. Further, the pEC50 with T47D [6] is 7.43; with HCT-116 [7], 7.31; in the experiment on SNU-398 [8], 7.36.
For the molecule `COc1cc(C(=O)c2ccc(N(C)C)c3ccccc23)cc(OC)c1OC`, the pEC50 was 6.38 with T47D [6], 5.92 in the experiment with HCT-116 [7] and 6.24 in the experiment on SNU-398 [8].
For `COc1ccc(C(=O)c2ccc(N(C)C)cc2)c2ccccc12`, in that order: 6.09, 5.92 and 6.01.
The corresponding values for `COc1ccc(C(OC)c2ccc(N(C)C)c3ccccc23)cc1` (stereo not given) are 6.23, 6.21 and 6.12.
Regarding `COc1ccc(C(O)c2ccc(N(C)C)c3ccccc23)cc1` (stereo not given), the GI50 with SNU-398 [1] stood at 0.17 µM; with HCT-116 [5], 0.49 µM; in the experiment on T47D [9], 0.23 µM. In addition, the pEC50 is 6.85 in the experiment on T47D [6], 6.59 in the experiment with HCT-116 [7] and 6.77 with SNU-398 [8].
In the case of `COc1ccc(C(=O)c2ccc([N+](=O)[O-])cc2)c2ccccc12`, the pEC50 in the experiment with T47D [6], with HCT-116 [7] and in the experiment with SNU-398 [8] was under 5.00 in each case.
For `COc1ccc(N(C)c2ccc([N+](=O)[O-])c3ccccc23)cc1`, the pEC50 was 6.62 in the experiment on T47D [6], 6.55 with HCT-116 [7] and 6.48 in the experiment on SNU-398 [8].
Take `COc1cccc(N(C)c2ccc(N(C)C)c3ccccc23)c1`: the pEC50 in the experiment with T47D [6] is 5.36; with HCT-116 [7] it was 5.34; in the experiment on SNU-398 [8] it was 5.33.
The corresponding values for `COc1ccc(N(C)c2ccc(N)c3ccccc23)cc1` are 4.92, 4.96 and 5.28.
Regarding `COc1cccc(C(=O)c2ccc(N(C)C)c3ccccc23)c1`, the pEC50 is 5.59 in the experiment on T47D [6], 5.29 with HCT-116 [7] and 5.46 in the experiment with SNU-398 [8].
As for `COc1ccc(C(=O)c2ccc(N(C)C)c3ccccc23)cc1OC`, the values for the pEC50 with T47D [6], with HCT-116 [7] and in the experiment on SNU-398 [8] were 6.33, 6.19 and 6.25, respectively.
On to `COc1ccc(C(=O)c2ccc(N(C)C)c3ccccc23)cc1`, for which the figures for the GI50 with SNU-398 [1], in the experiment on HCT-116 [5] and in the experiment with T47D [9] were 0.027 µM, 0.1 µM and 0.039 µM, respectively. Moreover, the negative-log EC50 (pEC50) in the experiment with T47D [6] was 7.14; with HCT-116 [7] it was 7.07; in the experiment on SNU-398 [8] it was 7.13.
As to `COc1cc(OC)cc(C(=O)c2ccc(N(C)C)c3ccccc23)c1`, the pEC50 in the experiment with T47D [6] was 5.89; in the experiment on HCT-116 [7], 5.72; with SNU-398 [8], 5.82.
On to `COc1ccc(N(C)c2ccc(N(C)C)c3ccccc23)cc1`, for which the GI50 in the experiment with SNU-398 [1] was 0.15 µM; in the experiment on HCT-116 [5], 0.32 µM; with T47D [9], 0.26 µM. Also, the values for the pEC50 in the experiment with T47D [6], with HCT-116 [7] and with SNU-398 [8] were 6.29, 6.21 and 6.14, respectively.
`CN(C)c1ccc(C(O)c2ccc(N(C)C)c3ccccc23)cc1` (stereo not given): the negative logarithm of the EC50 (pEC50) is 6.42 in the experiment with T47D [6], 6.31 with HCT-116 [7] and 6.28 with SNU-398 [8].
